According to PMC6661771, “Indole hybridized diazenyl derivatives: synthesis, antimicrobial activity, cytotoxicity evaluation and docking studies” (BMC Chemistry, 2019):
Converted amounts (≈) assume the structure as drawn. Read-outs that look alike come from different tables or passages of the source.

How the values were obtained:
E. coli [1] = assay: Minimum bactericidal concentration (MBC); format: cell-based; conditions: for MBC: Escherichia coli
A. fumigatus [2] = assay: Minimum fungicidal concentration (MFC); format: cell-based; conditions: for MFC: Aspergillus fumigatus, read-out: MBC/MFC
B. subtilis [3] = assay: MIC by tube dilution method; format: cell-based; conditions: 24 h at 37 °C
K. pneumonia [4] = assay: Minimum bactericidal concentration (MBC); format: cell-based; conditions: for MBC: Klebsiella pneumoniae
B. subtilis [5] = assay: Minimum bactericidal concentration (MBC); format: cell-based; conditions: for MBC: Bacillus subtilis
S. enterica [6] = assay: MIC by tube dilution method; format: cell-based; conditions: 24 h at 37 °C
A. niger [7] = assay: Minimum fungicidal concentration (MFC); format: cell-based; conditions: for MFC: Aspergillus niger, read-out: MBC/MFC
A. fumigatus [8] = assay: MIC by tube dilution method; format: cell-based; conditions: 7 days at 25 °C
K. pneumonia [9] = assay: MIC by tube dilution method; format: cell-based; conditions: Klebsiella pneumoniae, 24 h, 24 h at 37 °C, read-out: MIC
S. aureus [10] = assay: Minimum bactericidal concentration (MBC); format: cell-based; conditions: for MBC: Staphylococcus aureus
A. niger [11] = assay: MIC by tube dilution method; format: cell-based; conditions: 7 days at 25 °C
E. coli [12] = assay: MIC by tube dilution method; format: cell-based; conditions: 24 h at 37 °C
S. aureus [13] = assay: MIC by tube dilution method; format: cell-based; conditions: 24 h at 37 °C
S. enterica [14] = assay: Minimum bactericidal concentration (MBC); format: cell-based; conditions: Salmonella enterica, read-out: MBC/MFC
Experimental: After MIC assessment, the indole derivatives (DS1–DS21), were additionally evaluated for MBC and MFC values. […] The 10–15 ml of nutrient agar and Sabouraud dextrose agar was added to the petri plates for bacterial and fungal samples respectively with gentle shaking of plates in order to mix the culture throughout the media. Allowed the media to solidify. The petri plates were then incubated for the predefined time and temperature as referenced already for bacterial and fungal cultures respectively. The plates were then investigated visually for the development of microbial growth. The MBC and MFC were stated as the minimum concentration of the compounds in aliquots showing no visual growth after incubation.

K562 = assay: MTT cell proliferation assay; format: cell-based; conditions: Homo sapiens, K562 leukemia, 48 h of drug treatment
Experimental: (§1) The cell lines used in study were initially procured from the National Centre for Cell Sciences (NCCS), Pune, India, and maintained in DMEM. The cell line was cultured in 25 cm^2 tissue culture flask with DMEM supplemented with 10% FBS, sodium bicarbonate, L-glutamine, and antibiotic solution containing: streptomycin (100 μg/ml), penicillin (100 U/ml). Cultured cell line was kept at 37 °C in a humidified 5% CO2 incubator (VWR, USA).
(§2) The compounds found to have good antimicrobial potential were then screened for their cytotoxicity using MTT […]) assay. 1 × 10^4 cells/well were seeded in 100 µl DMEM/MEM, supplemented with 10% FBS in each well of 96-well microculture plates and incubated for 24 h at 37 °C in a CO2 incubator. After incubation, all the prepared/synthesized compounds were added to the cells at 10, 25, 50 and 100 µg concentrations for 48 h. After 48 h of drug treatment, 10 µl MTT (5 mg/ml) was added to each well and the plates were further incubated for 4 h. Then the supernatant from each well was carefully removed, formazan crystals were dissolved in 100 µl of DMSO and absorbance at 570 nm wavelength was recorded on an ELISA reader. The IC50 value was calculated using the linear regression equation i.e. Y = Mx + C. Here, Y = 50, M and C values were derived from the viability graph. The assay was performed in triplicate.

HCT 116 = assay: MTT cell proliferation assay; format: cell-based; conditions: Homo sapiens, HCT-116, 48 h, HCT 116 colon cancer, 48 h of drug treatment
Experimental: as §1, §2

MDA MB 231 = assay: MTT cell proliferation assay; format: cell-based; conditions: MDA MB 231 breast cancer, 48 h of drug treatment
Experimental: as §1, §2

[15] = Bacillus subtilis, read-out: MIC
[16] = Salmonella enterica, 24 h, read-out: MIC
[17] = Aspergillus fumigatus, 168 h, read-out: MIC
[18] = Aspergillus niger, 168 h, read-out: MIC
[19] = Escherichia coli, 24 h, read-out: MIC
[20] = Staphylococcus aureus, read-out: MIC

SMILES | MBC (E. coli [1]) [µg/mL] | MFC (A. fumigatus [2]) [µg/mL] | MIC (B. subtilis [3]; [15]) [µg/mL] | MBC (K. pneumonia [4]) [µg/mL] | MBC (B. subtilis [5]) [µg/mL] | MIC (S. enterica [6]; [16]) [µg/mL] | MFC (A. niger [7]) [µg/mL] | MIC (A. fumigatus [8]; [17]) [µg/mL] | melting point [°C] | MIC (K. pneumonia [9]) [µg/mL] | MBC (S. aureus [10]) [µg/mL] | MIC (A. niger [11]; [18]) [µg/mL] | MIC (E. coli [12]; [19]) [µg/mL] | MIC (S. aureus [13]; [20]) [µg/mL] | MBC (S. enterica [14]; S. enterica, MBC) [µg/mL] | also measured
C/C(=N/c1ncccn1)c1ccc(/N=N\c2c[nH]c3ccccc23)cc1 [DS-17, (Z)-N-(1-(4-((Z)-(1H-Indol-3-yl)diazenyl)phenyl)ethylidene)pyrimidin-2-amine] | 15.6 (≈ 45.9 µM) | 125 (≈ 367 µM) | 125 (≈ 367 µM) | 15.6 (≈ 45.9 µM) | 62.5 (≈ 184 µM) | 62.5 (≈ 184 µM) | 125 (≈ 367 µM) | 31.2 (≈ 91.8 µM) | 275 to 280 | 7.81 (≈ 22.9 µM) | 62.5 (≈ 184 µM) | 62.5 (≈ 184 µM) | 3.9 (≈ 11.5 µM) | 62.5 (≈ 184 µM) | 62.5 (≈ 184 µM) | –
CCc1nnc(/N=C(/C)c2ccc(/N=N\c3c[nH]c4ccccc34)cc2)s1 [DS-7, (Z)-N-(1-(4-((Z)-(1H-Indol-3-yl)diazenyl)phenyl)ethylidene)-5-ethyl-1,3,4-thiadiazol-2-amine] | 31.2 (≈ 83.5 µM) | 125 (≈ 334 µM) | 125 (≈ 334 µM) | 16.2 (≈ 43.4 µM) | 125 (≈ 334 µM) | 31.2 (≈ 83.5 µM) | 125 (≈ 334 µM) | 62.5 (≈ 167 µM) | 145 to 150 | 3.9 (≈ 10.4 µM) | 125 (≈ 334 µM) | 62.5 (≈ 167 µM) | 7.81 (≈ 20.9 µM) | 62.5 (≈ 167 µM) | – | MBC (S. enterica [14]): 31.2 µg/mL (≈ 83.5 µM)
CC(=O)NS(=O)(=O)c1ccc(/N=C(/C)c2ccc(/N=N\c3c[nH]c4ccc([N+](=O)[O-])cc34)cc2)cc1 [DS-15, N-((4-((Z)-(1-(4-((Z)-(5-Nitro-1H-indol-3-yl)diazenyl)phenyl)ethylidene)amino)phenyl)sulfonyl)acetamide] | 125 (≈ 248 µM) | 125 (≈ 248 µM) | 31.2 (≈ 61.9 µM) | 31.2 (≈ 61.9 µM) | 62.5 (≈ 124 µM) | 31.2 (≈ 61.9 µM) | 125 (≈ 248 µM) | 62.5 (≈ 124 µM) | 110 to 115 | 3.9 (≈ 7.73 µM) | 31.2 (≈ 61.9 µM) | 125 (≈ 248 µM) | 15.6 (≈ 31 µM) | 125 (≈ 248 µM) | 31.2 (≈ 61.9 µM) | –
C/C(=N/c1ccc(F)cc1)c1ccc(/N=N\c2c[nH]c3ccc([N+](=O)[O-])cc23)cc1 [DS-16, (Z)-4-Fluoro-N-(1-(4-((Z)-(5-nitro-1H-indol-3-yl)diazenyl)phenyl)ethylidene)aniline] | 62.5 (≈ 156 µM) | 125 (≈ 311 µM) | 31.2 (≈ 77.9 µM) | 31.2 (≈ 77.9 µM) | 125 (≈ 311 µM) | 62.5 (≈ 156 µM) | 125 (≈ 311 µM) | 31.2 (≈ 77.9 µM) | 150 to 152 | 7.81 (≈ 19.5 µM) | 125 (≈ 311 µM) | 62.5 (≈ 156 µM) | 15.6 (≈ 38.9 µM) | 62.5 (≈ 156 µM) | 62.5 (≈ 156 µM) | –
C/C(=N/c1ccc(S(=O)(=O)Nc2ncccn2)cc1)c1ccc(/N=N\c2c[nH]c3ccccc23)cc1 [DS-19, 4-((Z)-(1-(4-((Z)-(1H-Indol-3-yl)diazenyl)phenyl)ethylidene)amino)-N-(pyrimidin-2-yl) benzenesulfonamide] | – | – | – | – | – | – | – | – | – | – | – | – | – | – | – | MBC/MFC (E. coli [1]): 62.5 µg/mL (≈ 126 µM); MBC/MFC (A. fumigatus [2]): 125 µg/mL (≈ 252 µM); MIC (B. subtilis [3]): 31.25 µg/mL (≈ 63.1 µM); MBC/MFC (K. pneumonia [4]): 15.62 µg/mL (≈ 31.5 µM); MBC/MFC (B. subtilis [5]): 125 µg/mL (≈ 252 µM); MIC (S. enterica [6]): 62.5 µg/mL (≈ 126 µM); MBC/MFC (A. niger [7]): 125 µg/mL (≈ 252 µM); MIC (A. fumigatus [8]): 31.25 µg/mL (≈ 63.1 µM); MBC/MFC (S. aureus [10]): 31.25 µg/mL (≈ 63.1 µM); MIC (A. niger [11]): 31.25 µg/mL (≈ 63.1 µM); MIC (E. coli [12]): 7.81 µg/mL (≈ 15.8 µM); MIC (S. aureus [13]): 31.25 µg/mL (≈ 63.1 µM)
OC(Cn1cncn1)(Cn1cncn1)c1ccc(F)cc1F [FLU, fluconazole, reference compound] | – | 125 (≈ 408 µM) | – | – | – | – | 125 (≈ 408 µM) | 7.81 (≈ 25.5 µM) | – | – | – | 31.2 (≈ 102 µM) | – | – | – | –
COc1cccc2c1C(=O)c1c(O)c3c(c(O)c1C2=O)C[C@@](O)(C(=O)CO)C[C@@H]3O[C@H]1C[C@H](N)[C@H](O)[C@H](C)O1 [DOX, doxorubicin, reference compound] | – | – | – | – | – | – | – | – | – | – | – | – | – | – | – | IC50 (K562): 2.62 ± 0.65 µg/mL (≈ 4.82 µM); IC50 (HCT 116): 3.37 ± 0.37 µg/mL (≈ 6.2 µM); IC50 (MDA MB 231; Homo sapiens, MDA-MB-231, 48 h, read-out: IC50): 3 µg/mL (≈ 5.52 µM); IC50 (MDA MB 231): 3.08 ± 0.95 µg/mL (≈ 5.67 µM)
